This is an account of results in patent US20230114241A1, “METHODS OF TREATING EPILEPSY USING THE SAME” (Trevena, Inc., priority 2019, published 2023).

For one assay, the target named is human sphingosine-1-phosphate receptor 1 (S1P1) (Homo sapiens, UniProt P21453). The experiment in a line: Inhibition of cAMP production (HTRF cAMP HiRange), S1P1 CHO-K1 cells. In kind it is cell-based. The settings on record: inhibition of cAMP production, S1P1; read-out: hS1P1 CAMP pEC50 (converted). In outline: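 Intracellular cAMP changes read by TR-FRET (HTRF HiRange, 1 h room temperature) after 30 min compound exposure at 37 °C. Cells: overnight-plated CHO-K1 stably expressing tagged human S1P1 with EA-β-arrestin2. Responses normalized to fingolimod.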
human sphingosine-1-phosphate receptor 1 (S1P1), sequence (P21453 whole entry): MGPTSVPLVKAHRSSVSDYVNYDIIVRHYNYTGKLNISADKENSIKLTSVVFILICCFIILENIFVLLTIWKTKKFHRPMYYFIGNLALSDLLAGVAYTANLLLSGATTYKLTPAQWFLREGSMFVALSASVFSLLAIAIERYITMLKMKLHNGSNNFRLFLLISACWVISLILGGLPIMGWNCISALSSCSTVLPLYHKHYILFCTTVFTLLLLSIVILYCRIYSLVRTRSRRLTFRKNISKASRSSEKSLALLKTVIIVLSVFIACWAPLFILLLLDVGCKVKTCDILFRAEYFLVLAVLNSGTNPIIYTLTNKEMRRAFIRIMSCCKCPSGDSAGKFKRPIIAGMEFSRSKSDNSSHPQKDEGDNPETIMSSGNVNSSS
In the case of `COc1cccc(-c2coc(-c3ccc4c(c3)nnn4C(C)C)n2)c1` [Compound 385, 5-[4-(3-methoxyphenyl)-1,3-oxazol-2-yl]-1-(propan-2-yl)-H-1,2,3-benzotriazole], the EC50 is more than 316 nM.
The same measure, in the same setting: the result for `CC(C)n1ccc2cc(-c3nc(-c4ccccc4F)cs3)ccc21` [Compound 403, 4-(2-fluorophenyl)-2-(1-isopropylindol-5-yl)thiazole] reads more than 316 nM.
Same read-out and setting: the result for `Cc1cccc2oc(-c3ccc4c(c3)nnn4C(C)C)nc12` [Compound 418, 2-(1-isopropyl-1H-benzo[d][1,2,3]triazol-5-yl)-4-methyl-benzo[d]oxazole] reads less than 316 nM; that for `Cc1ccc2oc(-c3ccc4c(c3)nnn4C(C)C)nc2c1` [Compound 419, 2-(1-isopropyl-1H-benzo[d][1,2,3]triazol-5-yl)-5-methyl-benzo[d]oxazole], less than 316 nM; that for `Cc1ccc2nc(-c3ccc4c(c3)nnn4C(C)C)oc2c1` [Compound 420, 2-(1-isopropyl-1H-benzo[d][1,2,3]triazol-5-yl)-6-methyl-benzo[d]oxazole], less than 316 nM.
The same measure, in the same setting: the result for `Cc1cccc2nc(-c3ccc4c(c3)nnn4C(C)C)oc12` [Compound 421, 2-(1-isopropyl-1H-benzo[d][1,2,3]triazol-5-yl)-7-methyl-benzo[d]oxazole] reads more than 316 nM; that for `COc1cccc2oc(-c3ccc4c(c3)nnn4C(C)C)nc12` [Compound 424, 2-(1-isopropyl-1H-benzo[d][1,2,3]triazol-5-yl)-4-methoxy-benzo[d]oxazole], less than 316 nM.
As to `COc1ccc2nc(-c3ccc4c(c3)nnn4C(C)C)oc2c1` [Compound 426, 2-(1-isopropyl-1H-benzo[d][1,2,3]triazol-5-yl)-6-methoxy-benzo[d]oxazole], the EC50 is less than 316 nM.
On the same count and under the same terms, the result for `CC(C)n1nnc2cc(-c3nc4c(Cl)cccc4o3)ccc21` [Compound 427, 4-chloro-2-(1-isopropyl-1H-benzo[d][1,2,3]triazol-5-yl)benzo[d]oxazole] reads more than 316 nM; that for `CC(C)n1nnc2cc(-c3nc4c(Br)cccc4o3)ccc21` [Compound 428, 4-bromo-2-(1-isopropylbenzotriazol-5-yl)-1,3-benzoxazole], more than 316 nM.
Same read-out and setting: the result for `CC(C)n1nnc2cc(-c3nc(-c4ccccc4C(F)(F)F)co3)ccc21` [Compound 432, 1-(propan-2-yl)-5-{4-[2-(trifluoromethyl)phenyl]-1,3-oxazol-2-yl}-1H-1,2,3-benzotriazole] reads less than 316 nM; that for `Cc1ccccc1-c1coc(-c2ccc3c(c2)nnn3C(C)C)n1` [Compound 433, 5-[4-(2-methylphenyl)-1,3-oxazol-2-yl]-1-(propan-2-yl)-1H-1,2,3-benzotriazole], less than 316 nM.
On the same count and under the same terms, the result for `CC(C)n1nnc2cc(-c3nc4c(o3)CCCc3ccccc3-4)ccc21` [Compound 434, 4-[1-(propan-2-yl)-1H-1,2,3-benzotriazol-5-yl]-5-oxa-3-azatricyclo[8.4.0.0^2,6] tetradeca-1(14),2(6),3,10,12-pentaene] reads more than 316 nM.
With `COc1cc(C)c2nc(-c3ccc4c(c3)nnn4C(C)C)oc2c1` [Compound 436, 2-(1-isopropyl-1H-benzo[d][1,2,3]triazol-5-yl)-6-methoxy-4-methylbenzo[d]oxazole], the EC50 is less than 316 nM.
The same measure, in the same setting: the result for `Cc1ccc2oc(-c3ccc4c(c3)nnn4CC(C)C)nc2c1` [Compound 437, 2-(1-isobutyl-1H-benzo[d][1,2,3]triazol-5-yl)-5-methyl-benzo[d]oxazole] reads less than 316 nM.
Turning to `CC(C)n1nnc2cc(-c3nc(-c4ccccc4N)co3)ccc21` [Compound 438, 2-{2-[1-(propan-2-yl)-1H-1,2,3-benzotriazol-5-yl]-1,3-oxazol-4-yl}aniline], the EC50 was less than 316 nM.
Same read-out and setting: the result for `Cc1ccncc1-c1noc(-c2ccc3c(c2)nnn3C2CCOCC2)n1` [Compound 439, 5-[3-(4-methylpyridin-3-yl)-1,2,4-oxadiazol-5-yl]-1-(oxan-4-yl)-1H-1,2,3-benzotriazole] reads more than 316 nM.
Still for that read-out and setting: the result for `N#Cc1cc(-c2nc(-c3ccc4sc(N)nc4c3)no2)ccc1NCC1CC1` [Compound 440, 5-(3-(2-aminobenzo[d]thiazol-5-yl)-1,2,4-oxadiazol-5-yl)-2-((cyclopropylmethyl)amino)benzonitrile] reads less than 316 nM; that for `CC(C)Nc1ccc(-c2nc(-c3ccc4sc(N)nc4c3)no2)cc1C#N` [Compound 441, 5-(3-(2-aminobenzo[d]thiazol-5-yl)-1,2,4-oxadiazol-5-yl)-2-(isopropylamino) benzonitrile], less than 316 nM; that for `CCC1(CC)CC(=O)c2cc(-c3nc(-c4ccc5sc(N)nc5c4)no3)ccc2O1` [Compound 446, 6-(3-(2-aminobenzo [d]thiazol-5-yl)-1,2,4-oxadiazol-5-yl)-2,2-diethylchroman-4-one], more than 316 nM.
Same read-out and setting: the result for `COc1cccc2oc(-c3ccc4c(c3)nnn4CC(C)C)nc12` [Compound 450, 2-(1-isobutyl-1H-benzo[d][1,2,3]triazol-5-yl)-4-methoxy-benzo[d]oxazole] reads less than 316 nM.
`COc1ccc2oc(-c3ccc4c(c3)nnn4CC(C)C)nc2c1` [Compound 451, 2-(1-isobutyl-1H-benzo[d][1,2,3]triazol-5-yl)-5-methoxy-benzo[d]oxazole]: the EC50 is less than 316 nM.
Same read-out and setting: the result for `COc1ccc2nc(-c3ccc4c(c3)nnn4CC(C)C)oc2c1` [Compound 452, 2-(1-isobutyl-1H-benzo[d][1,2,3]triazol-5-yl)-6-methoxy-benzo[d]oxazole] reads more than 316 nM; that for `CC(C)n1nnc2cc(-c3nc4c(o3)CCc3sccc3-4)ccc21` [Compound 456, 4-[1-(propan-2-yl)-1H-1,2,3-benzotriazol-5-yl]-5-oxa-10-thia-3-azatricyclo[7.3.0.0^2,6] dodeca-1(9),2(6),3,11-tetraene], less than 316 nM; that for `CC(C)n1nnc2cc(-c3nc4c(ccc5sccc54)o3)ccc21` [Compound 457, 4-[1-(propan-2-yl)-1H-1,2,3-benzotriazol-5-yl]-5-oxa-10-thia-3-azatricyclo[7.3.0.0^2,6] dodeca-1(9),2(6),3,7,11-pentaene], less than 316 nM.
As to `CC(=O)Nc1ccccc1-c1coc(-c2ccc3c(c2)nnn3C(C)C)n1` [Compound 458, N-(2-{2-[1-(propan-2-yl)-1H-1,2,3-benzotriazol-5-yl]-1,3-oxazol-4-yl}phenyl)acetamide], the EC50 was more than 316 nM.
For `CC(C)n1nnc2cc(-c3nc(-c4cccs4)co3)ccc21` [Compound 459, 1-(propan-2-yl)-5-[4-(thiophen-2-yl)-1,3-oxazol-2-yl]-1H-1,2,3-benzotriazole], the EC50 is more than 316 nM.
For `CC(C)(O)Cn1nnc2cc(-c3nc(-c4ccncc4C(F)(F)F)no3)ccc21` [Compound 460, 2-methyl-1-(5-{3-[3-(trifluoromethyl)pyridin-4-yl]-1,2,4-oxadiazol-5-yl}-1H-1,2,3-benzotriazol-1-yl)propan-2-ol], the EC50 was more than 316 nM.
On to `CC(C)Cn1nnc2cc(-c3nc4c(Br)cccc4o3)ccc21` [Compound 461, 4-bromo-2-(1-isobutyl-1H-benzo[d][1,2,3]triazol-5-yl)benzo[d]oxazole], for which the EC50 is more than 316 nM.
Same read-out and setting: the result for `CC(C)n1nnc2cc(-c3nc4c(o3)COc3ccccc3-4)ccc21` [Compound 462, 5-{4H-chromeno[4,3-d][1,3]oxazol-2-yl}-1-(propan-2-yl)-1H-1,2,3-benzotriazole] reads less than 316 nM; that for `CC(C)n1nnc2cc(-c3nc(-c4ccccn4)co3)ccc21` [Compound 474, 1-(propan-2-yl)-5-[4-(pyridin-2-yl)-1,3-oxazol-2-yl]-1H-1,2,3-benzotriazole], more than 316 nM.
`Cc1occc1-c1noc(-c2ccc3c(c2)nnn3CC(C)(C)O)n1` [Compound 492, 2-methyl-1-{5-[3-(2-methylfuran-3-yl)-1,2,4-oxadiazol-5-yl]-1H-1,2,3-benzotriazol-1-yl}propan-2-ol]: the EC50 was more than 316 nM.
On the same count and under the same terms, the result for `CC(C)(O)Cn1nnc2cc(-c3nc(-c4ccc5nc[nH]c5c4)no3)ccc21` [Compound 501, 1-{5-[3-(1H-1,3-benzo-diazol-6-yl)-1,2,4-oxadiazol-5-yl]-1H-1,2,3-benzotriazol-1-yl}-2-methylpropan-2-ol] reads more than 316 nM.

The same assay, now with this note: inhibition of cAMP production; potency; read-out: hS1P1 CAMP pEC50 (converted).
Take `CC(C)Nc1ccc(-c2nnc(-c3ccc4[nH]ncc4c3)o2)cc1C#N` [Compound 351, 5-[5-(1H-indazol-5-yl)-1,3,4-oxadiazol-2-yl]-2-[(propan-2-yl)amino]benzonitrile]: the EC50 was less than 316 nM.
On the same count and under the same terms, the result for `N#Cc1cc(-c2nnc(-c3ccc4[nH]ncc4c3)o2)ccc1NCC1CC1` [Compound 352] reads less than 316 nM; that for `N#Cc1cc(-c2nnc(-c3ccc4[nH]ncc4c3)o2)ccc1NCCF` [Compound 353, 2-[(2-fluoroethyl)amino]-5-[5-(1H-indazol-5-yl)-1,3,4-oxadiazol-2-yl]benzonitrile], less than 316 nM; that for `N#Cc1cc(-c2nnc(-c3ccc4[nH]ncc4c3)o2)ccc1NCC(F)F` [Compound 354, 2-[(2,2-difluoro-ethyl)amino]-5-[5-(1H-indazol-5-yl)-l,3,4-oxadiazol-2-yl]benzonitrile], less than 316 nM.
Same read-out and setting: the result for `N#Cc1cc(-c2nnc(-c3ccc4[nH]cnc4c3)o2)ccc1NCC1CC1` [Compound 357, 5-[5-(1H-1,3-benzo-diazol-5-yl)-1,3,4-oxadiazol-2-yl]-2-[(cyclopropylmethyl)amino]benzonitrile] reads less than 316 nM; that for `N#Cc1cc(-c2nnc(-c3ccc4[nH]cnc4c3)o2)ccc1NCCF` [Compound 358, 5-[5-(1H-1,3-benzo-diazol-5-yl)-1,3,4-oxadiazol-2-yl]-2-[(2-fluoroethyl)amino] benzonitrile], less than 316 nM.
On the same count and under the same terms, the result for `N#Cc1cc(-c2nnc(-c3ccc4[nH]cnc4c3)o2)ccc1NCC(F)F` [Compound 359, 5-[5-(1H-1,3-benzo-diazol-5-yl)-1,3,4-oxadiazol-2-yl]-2-[(2,2-difluoroethyl)amino] benzonitrile] reads less than 316 nM.
